Data on three compounds can be found in patent US20100280046A1, “Methods and Compositions for Treating Prostate Cancer, Benign Prostatic Hypertrophy, Polycystic Ovary Syndrome and Other Conditions” (DIOBEX, INC., priority 2006, published 2010).

For series [1], the system named is plasma testosterone. As to the kind of experiment: Plasma testosterone in rats four hours after oral gavage of increasing dosage (FIG. 1). The class given is in vivo. Conditions: Sprague-Dawley rats, in olive oil. As for the experimental part:
The concentration of testosterone in the plasma of Sprague-Dawley rats was determined four hours after delivery by oral gavage of increasing dosage of the racemate or of the indicated enantiomer.
The effect of ketoconazole and the ketoconazole enantiomers on testosterone levels in the plasma of Sprague Dawley rats was determined. […] To generate the results shown in FIG. 1, fifteen groups (ten per group) of rats were used. The rats were maintained on a 14/10 hour light/dark cycle and allowed free access to food and water. Each rat was dosed with the indicated drug (or vehicle) at the indicated dosage via a gastric tube. All of the rats were dosed between 2.00 and 3.00 pm and were sacrificed four hours later (between 6.00 and 7.00 pm). Plasma was prepared and the concentration of testosterone determined by an enzyme linked immuno assay (ELISA).

For series [2] the following is noted: isolated guinea pig hearts; cited from earlier work.
The target in the next series is T1, 17α hydroxylase (Homo sapiens, UniProt P05093).
T1 sequence (P05093 1-508): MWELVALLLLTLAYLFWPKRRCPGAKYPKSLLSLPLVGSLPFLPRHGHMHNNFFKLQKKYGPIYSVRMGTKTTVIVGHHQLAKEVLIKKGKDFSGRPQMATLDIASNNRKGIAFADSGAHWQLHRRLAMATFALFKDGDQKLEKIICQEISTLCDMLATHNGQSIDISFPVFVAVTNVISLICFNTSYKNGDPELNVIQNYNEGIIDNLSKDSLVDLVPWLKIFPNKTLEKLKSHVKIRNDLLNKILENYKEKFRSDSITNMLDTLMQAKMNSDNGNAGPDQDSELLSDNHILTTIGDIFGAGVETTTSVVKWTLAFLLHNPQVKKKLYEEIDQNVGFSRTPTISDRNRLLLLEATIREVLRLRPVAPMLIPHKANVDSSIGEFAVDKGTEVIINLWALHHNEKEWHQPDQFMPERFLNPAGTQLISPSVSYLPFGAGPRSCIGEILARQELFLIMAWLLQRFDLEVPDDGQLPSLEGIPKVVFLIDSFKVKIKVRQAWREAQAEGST
Conditions: cited from earlier work.

The conditions of series [3]: ketoconazole treated patients; cited from earlier work.
The test system of the next series is 17,20 lyase. Conditions: cited from earlier work.
For series [4] the following is noted: accelerated in the presence of water and elevated temperatures; cited from earlier work.
Series [5] has as its system plasma testosterone. The series can be described thus: Time course of depression of plasma testosterone in rats after 200 mg/kg (FIG. 2). Format: in vivo. Conditions: Sprague-Dawley rats, 200 mg/kg oral gavage, indicated times after dosing. On the procedure: The rats were maintained and dosed as described above. Plasma was prepared at the indicated times after dosing and the concentration of testosterone in the plasma determined by ELISA.

The nature of series [6]: Plasma levels of the two ketoconazole enantiomers in patients after fourteen daily doses (FIG. 4, FIG. 5). Format: in vivo, humans. Conditions: for hepatic extraction (from the plasma into the liver): inferred from plasma profiles in patients; for plasma level (pharmacokinetic profile) of the enantiomer after racemic ketoconazole: 400 mg racemic ketoconazole (200 mg 2S,4R and 200 mg 2R,4S) once per day. As for the experimental part:
Each patient was given the appropriate drug once per day in the evening. After fourteen daily doses the level of each of the two enantiomers present in the plasma of the patients was determined at the indicated time points following the last dose of drug.
Assays were established and validated using isolated and purified enantiomers. […] Solid phase extraction (SPE) and HPLC/MS/MS were used to determine the concentration of the enantiomers 2R,4S and 2S,4R, of Ketoconzaole from human plasma. 2R,4S and 2S,4R Ketoconzaole were extracted from the plasma sample using SPE, 96 well plates packed with a reversed phase C8 extraction beds from Varian (Lake Forest, Calif.). An aliquot of the extract was injected onto a HPLC/MS/MS triple quadrupole mass spectrometer (Sciex API3000). A Chiralpak AD-H, 5 μm HPLC column (2.1×150 mm) from Chiral Technologies (West Chester, Pa.) preceded by an AD-H guard column (0.4×1.0 cm) were used to separate 2R,4S and 2S,4R Ketoconzaole and the internal standard terconazole. The peak area of multiple product ions (531.4→82.2, […], and 531.4→489.5) of the enantiomers of Ketoconzaole were summed and measured against the peak area of the product ion of the internal standard (terconazole, 534.5-÷ 219.3). Quantitation was performed using 1/x^2 weighted linear least squares regression line generated from similarly extracted plasma calibration samples ranging from 5 to 1000 ng/mL. All plasma was preserved with K3EDTA.

For series [7] the following is noted: oral racemic ketoconazole, healthy subjects; cited from earlier work.
Setting [8] is: patients, after fourteen daily doses.

Entries after “also recorded” stand apart in the source; their conditions may differ.

`CC(=O)N1CCN(c2ccc(OCC3COC(Cn4ccnc4)(c4ccc(Cl)cc4Cl)O3)cc2)CC1` (racemic) [racemic ketoconazole, 1-acetyl-4-[4-[[2-(2,4-dichlorophenyl)-2-[(1H-imidazol-1-yl)-methyl]-1,3-dioxolan-4-yl]methoxy]phenyl]piperazine]: in the series with plasma testosterone [1], the “lowering of plasma testosterone” value is “dose dependent effect”. Moreover, in [2], the “risk of cardiac arrhythmia” value is on record as “may be associated with an increased risk of cardiac arrhythmia”. Also, on 17α hydroxylase, the “inhibition of 17α hydroxylase” value was “inhibit”. The “level of liver specific enzymes in the serum” value in series [3] was “increase in these enzymes has been noted”. Also, the “potency toward 17,20 lyase” value in the series with 17,20 lyase is given as “inhibit”. The “degradation (oxidation)” value in [4] was “can undergo degradation (oxidation)”. Also, the “time course of depression of plasma testosterone” value in the series on plasma testosterone [5] is “testosterone levels recover following dosing”.
As for `CC(=O)N1CCN(c2ccc(OC[C@H]3CO[C@](Cn4ccnc4)(c4ccc(Cl)cc4Cl)O3)cc2)CC1` (single isomer, unassigned) [2R,4S enantiomer, reference compound], in [6], the “hepatic extraction (from the plasma into the liver)” value is reported as “more efficient extraction”. Also, the “plasma level (pharmacokinetic profile) of the enantiomer after racemic ketoconazole” value in series [6] (setting [8]) is on record as “approximately one third of the plasma concentration of the 2S,4R enantiomer”.
With `CC(=O)N1CCN(c2ccc(OC[C@@H]3CO[C@@](Cn4ccnc4)(c4ccc(Cl)cc4Cl)O3)cc2)CC1` [2S,4R enantiomer], the “plasma level of the enantiomer after racemic ketoconazole” value in series [7] is recorded as “approximately three times greater than that of the 2R,4S enantiomer”. Further, the “lowering of plasma testosterone” value in the series with plasma testosterone [1] was “more effective at lowering testosterone than any either racemic ketoconazole or the 2R,4S enantiomer of ketoconazole; also recorded: significantly more efficacious than both the ketoconazole racemate and the other cis enantiomer (2R,4S)”. Also, in series [6], the “hepatic extraction (from the plasma into the liver)” value is “relatively low hepatic extraction”. The “plasma level (pharmacokinetic profile) of the 2S,4R enantiomer given alone” value in series [6] (patients, 200 mg 2S,4R enantiomer once per day, after fourteen daily doses) is “very similar when given alone; also recorded: approximately the same as the plasma level of the 2S,4R enantiomer when patients are given both 200 mg 2S,4R and 200 mg 2R,4S”. Further, the “plasma level (pharmacokinetic profile) of the enantiomer after racemic ketoconazole” value in series [6] (setting [8]) is on record as “significantly greater than the pharmacokinetic profile of the 2R,4S enantiomer”. For the same compound, the “potency toward 17,20 lyase” value in the series with 17,20 lyase was “more potent toward 17,20 lyase than is the other enantiomer 2R,4S”. The “time course of depression of plasma testosterone” value with plasma testosterone [5] (200 mg/kg) is listed as “more effective at lowering testosterone than either racemic ketoconazole or the other cis enantiomer present in racemic ketoconazole (2R,4S)”; with plasma testosterone [5] (listed as 2S,4R, 200 mg/kg), “significantly more efficacious than 2R,4S with respect to reducing testosterone levels”.
